The source of these data is patent US8530465B2, “1, 2-disubstituted amido-anthraquinone derivatives, preparation method and application thereof” (National Defense Medical Center, priority 2010, dated 2013).

Structures are written as SMILES.

The test system of one data set is hTERT. Briefly: Secreted alkaline phosphatase (SEAP) assay, PhTERT-SEAP (H1299). In kind it is cell-based. Conditions: Homo sapiens, 24 hours; for activity at 1 µM: NCI-H1299, Conc. 1 μM, read-out: Relative SEAP activity (%); for activity at 10 µM: NCI-H1299, Conc. 10 μM; for activity at 10 µM / activity at 100 µM: read-out: Relative SEAP activity (%) (converted); for activity at 100 µM: NCI-H1299, Conc. 100 μM. The protocol:
H1299 were grown in RPMI 1640 media supplemented with 10% fetal bovine serum, 100 units/mL penicillin and […] streptomycin in a humidified atmosphere with 5% CO2 at 37° C. Culture media were changed every three days. To establish stable cell lines that the expression of hTERT could be monitored by a reporter system, a about 3.3 kbp DNA fragment ranging from −3338 to +1 bp of the hTERT gene (hTERT promoter, PhTERT) was subcloned upstream to a secreted alkaline phosphatase gene (SEAP) and transfected into H1299 by electroporation. The stable clones were selected using G418. The stable clones derived from H1299 were cultured using conditions that are similar to their parental cells.
Secreted alkaline phosphatase was used as the reporter system to monitor the transcriptional activity of hTERT. Here, about 10^4 cells each were grown in 96-well plates and incubated at 37° C. for 24 hours and changed with fresh media. Varying amounts of drugs were added and cells were incubated for another 24 hours. Culture media were collected and heated at 65° C. for 10 min to inactivate heat-labile phosphatases. An equal amount of SEAP buffer (2 M diethanolamine, 1 mM MgCl2, and 20 mM L-homoarginine) was added to the media and p-nitrophenyl phosphate was added to a final concentration of 12 mM. Absorptions at 405 nm were taken, and the rate of absorption increase is determined (the increasing rate of absorbance at 405 nm was used to represent the activity of SEAP).

Data set [1] in a line: MTT assay, PhTERT-SEAP (H1299). Conditions: human, H1299 cells carrying the PhTERT-SEAP reporter, PhTERT-SEAP (H1299); for viability at 1 μM: Conc. 1 μM, read-out: Relative MTT viability (%); for viability at 10 μM: Conc. 10 μM; for viability at 10 μM / viability at 100 μM: read-out: Relative MTT viability (%) (converted); for viability at 100 μM: Conc. 100 μM. In kind it is cell-based, human. The protocol: (§1) Further, cells were subjected to MTT assay to compare the relative toxicity or effect of each compound on cell proliferation and activity.
(§2) The above-described cells are cultured in a 96-well plate, to which was added with 25 μl MTT solution, and cultured in a 37° C. carbon dioxide incubator for 4 hours. Then, 100 μl Lysis buffer is added and incubated in a 37° C. carbon dioxide incubator overnight. An ELISA reader (Bio-Rad Model 450) is used to read optical density (O.D.) at 550 nm.

A further data set deals with H1299. Briefly: MTT assay, PhTERT-SEAP (H1299). It is filed as cell-based, human. Conditions: H1299; SEAP and MTT analysis. The protocol: as §1, §2
(Tetrazolium assays rely on reduction of a dye to a coloured formazan, in cell work by metabolically active cells.)

Usually viability stands for a read-out of living cells in per cent, often relative to untreated cells. One may read the melting point as the temperature, or range, at which the solid turns liquid.

For `O=C(CCl)Nc1ccc2c(c1NC(=O)CCl)C(=O)c1ccccc1C2=O` [CC-01, 1,2-bis-(chloroacetamido)-anthraquinone], the melting point is 254 to 255 °C. Moreover, in the data set on hTERT, the activity at 1 µM came to 15.9 ± 1.06%, the activity at 10 µM is 13.7% and the activity at 100 µM was 13.7%. Further, in data set [1], the viability at 1 μM worked out at 8.1 ± 3.87%. The “cell toxicity / inhibitory activity compared with mitoxantrone and doxorubicin” value in the data set on H1299 was “higher cell toxicity activity than mitoxantrone and doxorubicin”.

`Cc1ccc(C(=O)Nc2c(NC(=O)CN3CCN(c4ccccc4)CC3)ccc3c2C(=O)c2ccccc2C3=O)cc1` [CC-45, 1-(4-methylbenzamido)-2-[2-(4-phenylpiperazino)acetylamino]-anthraquinone] registered a melting point of 270 to 271 °C. In the data set with hTERT, the activity at 1 µM is 93.2 ± 4.68%, the activity at 10 µM is 88.2% and the activity at 100 µM is 15.9%. Also, in data set [1], the viability at 1 μM is 80.8 ± 6.98%, the viability at 10 μM is 77% and the viability at 100 μM is 23.2%.

As for `Cc1ccc(C(=O)Nc2c(NC(=O)CN3CCN(c4ccccc4F)CC3)ccc3c2C(=O)c2ccccc2C3=O)cc1` [CC-46, 1-(4-methylbenzamido)-2-[2-[4-(2-fluorophenyl)piperazino]acetylamino]-anthraquinone], the melting point was in the range of 228 to 229 °C. In the data set on hTERT, the activity at 1 µM is 85 ± 10.8%, the activity at 10 µM was 76.2% and the activity at 100 µM was 20.1%. Moreover, in data set [1], the viability at 1 μM was 79.8 ± 9.65%, the viability at 10 μM is 68.7% and the viability at 100 μM is 40.8%.

Compound `Cc1ccc(C(=O)Nc2c(NC(=O)CN3CCN(c4ccccc4C#N)CC3)ccc3c2C(=O)c2ccccc2C3=O)cc1` [CC-47, 1-(4-methylbenzamido)-2-[2-[4-(2-cyanophenyl)piperazino]acetylamino]-anthraquinone] had a melting point of 238 to 239 °C. In the data set on hTERT, the activity at 1 µM came to 81 ± 9.56%, the activity at 10 µM is 74.2% and the activity at 100 µM is 20.8%. Moreover, in data set [1], the viability at 1 μM came to 72 ± 11.1%, the viability at 10 μM was 60.1% and the viability at 100 μM is 48.2%.

With `COc1ccccc1N1CCN(CC(=O)Nc2ccc3c(c2NC(=O)c2ccc(C)cc2)C(=O)c2ccccc2C3=O)CC1` [CC-48, 1-(4-methylbenzamido)-2-[2-[4-(2-methoxyphenyl)piperazino]acetylamino]-anthraquinone], the melting point was in the range of 215 to 216 °C. For the same compound, in the data set on hTERT, the activity at 1 µM worked out at 83.3 ± 2.81%, the activity at 10 µM was 68.3% and the activity at 100 µM is 12.2%. Also, in data set [1], the viability at 1 μM is 76.4 ± 3.95%, the viability at 10 μM was 78.3% and the viability at 100 μM was 22.7%.

On to `Cc1ccc(C(=O)Nc2c(NC(=O)CN3CCN(c4ccccn4)CC3)ccc3c2C(=O)c2ccccc2C3=O)cc1` [CC-49, 1-(4-methylbenzamido)-2-[2-[4-(2-pyridyl)piperazino]acetylamino]-anthraquinone], for which the melting point was 258 to 259 °C. Further, in the data set with hTERT, the activity at 1 µM was found to be 97.1 ± 7.43%, the activity at 10 µM is 64.3% and the activity at 100 µM is 9.96%. Further, in data set [1], the viability at 1 μM worked out at 105 ± 3.65%, the viability at 10 μM was 100% and the viability at 100 μM was 6.46%.

In turn, `Cc1ccc(C(=O)Nc2c(NC(=O)CN3CCN(c4ncccn4)CC3)ccc3c2C(=O)c2ccccc2C3=O)cc1` [CC-50, 1-(4-methylbenzamido)-2-[2-[4-(2-pyrimidinyl)piperazino]acetylamino]-anthraquinone] came in with a melting point of 267 to 268 °C. Besides, in the data set with hTERT, the activity at 1 µM is 87.1 ± 7.97%, the activity at 10 µM is 79.5% and the activity at 100 µM is 20%. Further, in data set [1], the viability at 1 μM was determined as 102 ± 5.76%, the viability at 10 μM was 91.5% and the viability at 100 μM was 59%.
